Laboratory results published in US20130224234A1, “TTLL4 PEPTIDES AND VACCINES CONTAINING THE SAME” (Onco Therapy Science, Inc., priority 2010, published 2013).
Entries after “also recorded” stand apart in the source; their conditions may differ.

Legend:
[1] = system: peptide-pulsed T2 cells; test: In vitro CTL induction, IFN-gamma ELISPOT assay (HLA-A*0201); format: cell-based, human; details: CTLs induced with peptide from HLA-A*0201 positive donor, peptide-pulsed T2 vs control
Source text: Monocyte-derived dendritic cells (DCs) were used as antigen-presenting cells to induce cytotoxic T lymphocyte (CTL) responses against peptides presented on human leukocyte antigen (HLA). DCs were generated in vitro as described elsewhere (Nakahara S et al., Cancer Res 2003, 63(14): 4112-8). Specifically, peripheral blood mononuclear cells isolated from a normal volunteer (HLA-A*0201 positive) by Ficoll-Plaque (Pharmacia) solution were separated by adherence to a plastic tissue culture dish (Becton Dickinson) so as to enrich them as the monocyte fraction. The monocyte-enriched population was cultured in the presence of 1000 U/ml of granulocyte-macrophage colony-stimulating factor (R&D System) and 1000 U/ml of interleukin (IL)-4 (R&D System) in AIM-V Medium (Invitrogen) containing 2% heat-inactivated autologous serum (AS). After 7 days of culture, the cytokine-induced DCs were pulsed with 20 micro-g/ml of each of the synthesized peptides in the presence of 3 micro-g/ml of beta 2-microglobulin for 3 hr at 37 degrees C. in AIM-V Medium. The generated cells appeared to express DC-associated molecules, such as CD80, CD83, CD86 and HLA class II, on their cell surfaces (data not shown). These peptide-pulsed DCs were then inactivated by X-irradiation (20 Gy) and mixing at a 1:20 ratio with autologous CD8+ T cells, obtained by positive selection with CD8 Positive Isolation Kit (Dynal). These cultures were set up in 48-well plates (Corning); each well contained 1.5×10^4 peptide-pulsed DCs, 3×10^5 CD8+ T cells and 10 ng/ml of IL-7 (R&D System) in 0.5 ml of AIM-V/2% AS medium. Three days later, these cultures were supplemented with IL-2 (CHIRON) to a final concentration of 20 IU/ml. On day 7 and 14, the T cells were further stimulated with the autologous peptide-pulsed DCs. The DCs were prepared each time by the same way described above. CTL was tested against peptide-pulsed T2 cells after the 3rd round of peptide stimulation on day 21 (Tanaka H et al., Br J Cancer 2001, 84(1): 94-9; Umano Y et al., Br J Cancer 2001, 84(8): 1052-7; Uchida N et al., Clin Cancer Res 2004, 10(24): 8577-86; Suda T et al., Cancer Sci 2006, 97(5): 411-9; Watanabe T et al., Cancer Sci 2005, 96(8): 498-506).
(§1) Specifically, peptide-pulsed T2 (1×10^4/well) was prepared as stimulator cells. Cultured cells in 48 wells were used as responder cells. IFN-gamma ELISPOT assay and IFN-gamma ELISA assay were performed under manufacture procedure.
CTLs for those peptides derived from TTLL4 were generated according to the protocols as described in “Materials and Methods”.

[2] = system: COS7 cells transfected with TTLL4 and HLA-A*0201; test: Specific CTL activity against target cells expressing TTLL4 and HLA-A*0201; format: cell-based, African green monkey; details: for Specific CTL activity against COS7 cells transfected with both TTLL4 and HLA-A*0201: CTL clone (9-805) or CTL line (9-66) established with peptide; for Specific CTL activity against control COS7 cells expressing either HLA-A*0201 or TTLL4: controls: COS7 transfected with only full length TTLL4 or only HLA-A*0201
Source text: The cDNA encoding an open reading frame of target genes or HLA-A*0201 was amplified by PCR. The PCR-amplified product was cloned into a vector. The plasmids were transfected into COST, which is the target genes and HLA-A*0201-null cell line, using lipofectamine 2000 (Invitrogen) according to the manufacturer's recommended procedures. After 2 days from transfection, the transfected cells were harvested with versene (Invitrogen) and used as the target cells (5×10^4 cells/well) for CTL activity assay.
The established CTL lines and clones raised against each peptide were examined for the ability to recognize target cells that express TTLL4 and HLA-A*0201 molecule. […] COS7 cells transfected with either full length of TTLL4 or HLA-A*0201 were prepared as the controls.

[3] = system: peptide-pulsed T2 cells; test: IFN-gamma ELISA assay of CTL lines (HLA-A*0201); format: cell-based, human; details: CTL lines stimulated with peptide, target cells pulsed with peptide vs without peptide pulse
Protocol: CTLs were expanded in culture using the method similar to the one described by Riddell et al. (Walter E A et al., N Engl J Med 1995, 333(16): 1038-44; Riddell S R et al., Nat Med 1996, 2(2): 216-23). A total of 5×10^4 CTLs were suspended in 25 ml of AIM-V/5% AS medium with 2 kinds of human B-lymphoblastoid cell lines, inactivated by Mitomycin C, in the presence of 40 ng/ml of anti-CD3 monoclonal antibody (Pharmingen). One day after initiating the cultures, 120 IU/ml of IL-2 were added to the cultures. The cultures were fed with fresh AIM-V/5% AS medium containing 30 IU/ml of IL-2 on days 5, 8 and 11 (Tanaka H et al., Br J Cancer 2001, 84(1): 94-9; Umano Y et al., Br J Cancer 2001, 84(8): 1052-7; Uchida N et al., Clin Cancer Res 2004, 10(24): 8577-86; Suda T et al., Cancer Sci 2006, 97(5): 411-9; Watanabe T et al., Cancer Sci 2005, 96(8): 498-506).
as §1
(§2) CTL activity of these CTL lines was determined by IFN-gamma ELISA assay (FIG. 6a-d). […] Furthermore, the CTL clones were established by limiting dilution from the CTL lines as described in “Materials and Methods”, and IFN-gamma production from the CTL clones against target cells pulsed peptide was determined by IFN-gamma ELISA assay.

[4] = system: peptide-pulsed T2 cells; test: IFN-gamma ELISA assay of CTL clones (HLA-A*0201); format: cell-based, human; details: CTL clones by limiting dilution, target cells pulsed with peptide vs control
Protocol: The dilutions were made to have 0.3, 1, and 3 CTLs/well in 96 round-bottomed micro titer plate (Nalge Nunc International). CTLs were cultured with 1×10^4 cells/well of 2 kinds of human B-lymphoblastoid cell lines, 30 ng/ml of anti-CD3 antibody, and 125 U/ml of IL-2 in a total of 150 micro-l/well of AIM-V Medium containing 5% AS. 50 micro-l/well of IL-2 were added to the medium 10 days later so to reach a final concentration of 125 U/ml IL-2. CTL activity was tested on the 14th day, and CTL clones were expanded using the same method as described above (Uchida N et al., Clin Cancer Res 2004, 10(24): 8577-86; Suda T et al., Cancer Sci 2006, 97(5): 411-9; Watanabe T et al., Cancer Sci 2005, 96(8): 498-506).
as §1, §2

GLGPGLLGV [SEQ ID NO: 44]
Peptide specific CTL activity (IFN-gamma production, ELISPOT) ([1]; listed as TTLL4-A02-9-66): potent IFN-gamma production; also recorded: significant and specific CTL activity | Specific CTL activity against COS7 cells transfected with both TTLL4 and HLA-A*0201 ([2]; listed as TTLL4-A02-9-66): specific CTL activity; also recorded: potent CTL activity | Specific CTL activity against control COS7 cells expressing either HLA-A*0201 or TTLL4 [2]: no significant specific CTL activity was detected | IFN-gamma production of CTL lines (ELISA) [3]: potent IFN-gamma production

FMHLTNYSV [SEQ ID NO: 39]
Peptide specific CTL activity (IFN-gamma production, ELISPOT) ([1]; listed as TTLL4-A02-9-805): potent IFN-gamma production; also recorded: significant and specific CTL activity | IFN-gamma production of CTL clones (ELISA) ([4]; listed as TTLL4-A02-9-805): Potent IFN-gamma productions | Specific CTL activity against COS7 cells transfected with both TTLL4 and HLA-A*0201 ([2]; listed as TTLL4-A02-9-805): specific CTL activity; also recorded: potent CTL activity | Specific CTL activity against control COS7 cells expressing either HLA-A*0201 or TTLL4 [2]: no significant specific CTL activity was detected | IFN-gamma production of CTL lines (ELISA) [3]: potent IFN-gamma production

FMWPNSTPV [SEQ ID NO: 38]
Peptide specific CTL activity (IFN-gamma production, ELISPOT) ([1]; listed as TTLL4-A02-9-222): potent IFN-gamma production; also recorded: significant and specific CTL activity | IFN-gamma production of CTL clones (ELISA) ([4]; listed as TTLL4-A02-9-222): Potent IFN-gamma productions | IFN-gamma production of CTL lines (ELISA) [3]: potent IFN-gamma production

ALIYSLFPNV [SEQ ID NO: 59]
Peptide specific CTL activity (IFN-gamma production, ELISPOT) ([1]; listed as TTLL4-A02-10-574): potent IFN-gamma production; also recorded: significant and specific CTL activity | IFN-gamma production of CTL clones (ELISA) ([4]; listed as TTLL4-A02-10-574): Potent IFN-gamma productions | IFN-gamma production of CTL lines (ELISA) [3]: potent IFN-gamma production
